# Legend:
# [1] = Stability in PBS with or without glutathione, sodium ascorbate or HEK293T cell lysate (HPLC); type: physicochemical
# Experimental: The stability of both the enamine N-oxide and hydroxylamine species under a variety of biologically relevant conditions were verified at various time points (FIG. 5A-FIG. 5B). […] However, approximately 40% of the hydroxylamine had decomposed by the 24 hour time point. The primary degradation products were consistent with hydrolysis of the regioisomeric nitrones that were likely generated by autoxidation. Consequently, this degradation pathway could be abrogated by the addition of cellular reductants such as ascorbic acid (5 mM) or glutathione (5 mM) (Bobko et al., Free Radical Biol. Med. 42(3):404-412 (2007)).
# As with the hydroxylamine, the stability of enamine N-oxide 17 was evaluated by HPLC under biologically relevant conditions.
# All reactions were monitored by HPLC at 0, 1, 2, 4, 8, and 24 hour time points.
# HPLC analysis: Reactions with enamine N-oxide 17 were analyzed by HPLC (Pursuit 200 Å C18, 4.6×150 mm, 10 μm particles, 1 mL/min flow rate, eluent: isocratic 0% MeCN/H2O+0.1% TFA (1 min), gradient 0→100% MeCN/H2O+0.1% TFA (14 minutes), isocratic 100% MeCN/H2O+0.1% TFA (1 minute)) and quantified using its absorbance at 280 nm. Reactions with hydroxylamine 13 were analyzed by HPLC (Pursuit 200 Å C18, 4.6×150 mm, 10 μm particles, 1 mL/min flow rate, eluent: isocratic 0% MeCN/H2O+0.1% TFA (1 minute), gradient 0-20% MeCN/H2O+0.1% TFA (1 minute), gradient 20-50% MeCN/H2O+0.1% TFA (16 minutes), gradient 50→100% MeCN/H2O+0.1% TFA (2 minutes), isocratic 100% MeCN/H2O+0.1% TFA (1 minute)) and quantified using its absorbance at 254 nm.
# Stability in PBS: Enamine N-oxide 17 (4 μL, 15 mM in 25% v/v MeOH/PBS, pH 7.4) was added to PBS (116 μL, pH 7.4; 500 μM final concentration). Separately, hydroxylamine 13 (3 μL, 20 mM in deionized H2O) was added to PBS (117 μL, pH 7.4; 500 μM final concentration). Each solution was monitored by HPLC at each time point.
# Stability in the presence of glutathione, sodium ascorbate, and cell lysate: The reactions were conducted as described above in the Stability in PBS section except the PBS solution was first supplemented with glutathione (5 mM final concentration), sodium ascorbate (5 mM final concentration), or HEK293T cell lysate (1 mg/mL final concentration) and pH adjusted to 7.4 before adding enamine N-oxide 17 (500 μM final concentration) or hydroxylamine 13 (500 μM final concentration).
# [2] = biological target: T1, lysozyme-COT 15 (Gallus gallus, UniProt P00698); assay: In vitro protein labeling of lysozyme-COT 15 with hydroxylamine 13 (in-gel fluorescence, intact MS); type: biochemical
# T1 construct: purchased
# Experimental: To test the bioorthogonality of the hydroamination reaction, in vitro protein labeling experiments were performed. Fluorophore-conjugated hydroxylamine 13 was first assembled from 6-carboxytetramethylrhodamine and hydroxylamine 12, which was in turn synthesized by nucleophilic displacement of iodide 11 with N-methylhydroxylamine hydrochloride (FIG. 4A). […] With both reaction components in hand, cyclooctyne-functionalized lysozyme 15 was treated with hydroxylamine 13 (0-200 μM) in PBS for 2 hours and analyzed by in-gel fluorescence (FIG. 4C). Labeling occurred in a concentration-dependent manner, and labeling was saturated at 100 μM hydroxylamine. […]
# Lysozyme (CAS 12650-88-3, 50 mg/mL in deionized H2O) was diluted into phosphate-buffered saline (PBS, pH 7.4) to a final concentration of 10 mg/mL. […] The concentration of lysozyme was determined by A280 measurement in denaturing buffer (pH 7.0, 6 M guanidinium, 30 mM MOPS) on a UV-vis spectrophotometer. […]
# A solution of lysozyme-COT 15 (5.0 μL, 0.15 mg/mL) was aliquoted into 6 samples. […] In-gel fluorescence was imaged with a Typhoon™ FLA 9500 (GE) at 532 nm with a photomultiplier tube (PMT) setting of 500 V. The experiment was carried out in triplicate (FIG. 8).
# A solution of lysozyme-COT 15 (5.0 μL, 0.15 mg/mL) was aliquoted each into 6 samples. […] Samples were snap frozen under liquid nitrogen until all samples were ready to be loaded on the gel. […]
# T1 sequence (P00698 19-147): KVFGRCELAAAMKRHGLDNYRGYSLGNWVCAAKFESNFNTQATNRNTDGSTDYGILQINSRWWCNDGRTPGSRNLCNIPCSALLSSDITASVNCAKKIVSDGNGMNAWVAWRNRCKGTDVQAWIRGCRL
structure (smiles),measurement,setting,value
"CN(O)CCOCCNC(=O)c1ccc2c(c1)C1(OC2=O)c2ccc(N(C)C)cc2Oc2cc(N(C)C)ccc21 [compound 13, 3′,6′-bis(dimethylamino)-N-(2-(2-(hydroxy(methyl)amino)ethoxy)ethyl)-3-oxo-3H-spiro[isobenzofuran-1,9′-xanthene]-6-carboxamide]",degradation in cell lysate,"[1]; HEK293T cell lysate (1 mg/mL), 24 hours, no exogenous reductants",no degradation above background
same,degradation in the presence of cellular reductants,"[1]; PBS with ascorbic acid (5 mM) or glutathione (5 mM), 24 hours",Negligible degradation
same,hydroxylamine decomposed,"[1]; PBS, room temperature, 24 hour time point",approximately 40%
same,compound intact,"[1]; PBS, room temperature, up to 8 hours, HPLC",> 86%
same,time to in-gel fluorescence signal saturation,"[2]; 200 μM 13, quenched with N,N-diethylhydroxylamine (20 mM)",≤ 1 h
same,hydroxylamine concentration at which labeling was saturated,"[2]; lysozyme-COT 15, 0-200 μM 13, PBS, 2 hours, in-gel fluorescence",100 µM
